{"source": "patent US20250051266A1", "about": "“Novel GLV-Phenolamide: Biosynthesis and Function in Protecting Plants from Herbivore Attack” (Max-Planck-Gesellschaft zur Förderung der Wissenschaften …, priority 2021, published 2025)", "key": {"Empoasca leafhoppers": {"test_system": "Empoasca leafhoppers", "experiment": "In vivo Empoasca choice assay, compounds infiltrated into irMYC2 leaves", "set-up": "species or system Empoasca decipiens", "conditions": "synthetic CoP 7 μM, CP 100 μM, FP 10 μM in 0.1% DMSO infiltrated into irMYC2 leaves", "description": "The spermi-dine-derived metabolites could be excluded as mediators of Empoasca nonhost resistance based on the lack of responses of leafhoppers to the irDH29 and irCV86 lines (FIG. 5). To further explore the involvement of CoP, CP and FP, in vivo Empoasca choice assays were conducted by individually infiltrating physiologically relevant concentrations of synthetic CoP (7 μM), CP (100 μM) and FP (10 μM) into leaves of irMYC2 plants which were devoid of elicited phenolamides (FIG. 9 and FIG. 34).\nTwo replicates of the 650 RILs from a 26-parent MAGIC population and their 26 parental 5 lines were planted at the WCCER field station, Prescott, Arizona, USA. To elicit a standardized herbivory response, leaves of all RILs, which were in the early-flowering stage were wounded and immediately treated with diluted Manduca sexta oral secretions (W+OS) or left untreated (control) and harvested on dry ice at 1 h and 72h. One week after metabolite sampling, all plants of the field population were screened for natural Empoasca leafhopper numbers and damage; these leafhoppers had opportunistically sampled the N. attenuata plants from neighboring native cu-cumber hostplants. The mQTL and eQTL mapping between SNPs and the relative abundance of each compound or transcript using a set of 646 RILs of the MAGIC population was done with the R package software GAPIT using General linear models (GLM). The multi-omics co-association network was built from correlations among metabolomes, transcriptomes, phytohormones and SNPs. […] Metabolome diversity and specialization and metabolic specificity was calculated using information theory by consider-ing the Shannon entropy of the idMS/MS frequency distributions. […] OS-induced volatile emissions were collected using polydimethylsiloxane (PDMS) tubing from 650 MAGIC RILs planted in the main MPI-CE glasshouse and analyzed bythermal desorption-gas chromatography-mass spectrometry (TD-GC-MS). […]"}, "NaPPO2": {"molecular_target": "NaPPO2 (Nicotiana attenuata, UniProt A0A1J6IKE9)", "sequence (A0A1J6IKE9 entry or part of it)": "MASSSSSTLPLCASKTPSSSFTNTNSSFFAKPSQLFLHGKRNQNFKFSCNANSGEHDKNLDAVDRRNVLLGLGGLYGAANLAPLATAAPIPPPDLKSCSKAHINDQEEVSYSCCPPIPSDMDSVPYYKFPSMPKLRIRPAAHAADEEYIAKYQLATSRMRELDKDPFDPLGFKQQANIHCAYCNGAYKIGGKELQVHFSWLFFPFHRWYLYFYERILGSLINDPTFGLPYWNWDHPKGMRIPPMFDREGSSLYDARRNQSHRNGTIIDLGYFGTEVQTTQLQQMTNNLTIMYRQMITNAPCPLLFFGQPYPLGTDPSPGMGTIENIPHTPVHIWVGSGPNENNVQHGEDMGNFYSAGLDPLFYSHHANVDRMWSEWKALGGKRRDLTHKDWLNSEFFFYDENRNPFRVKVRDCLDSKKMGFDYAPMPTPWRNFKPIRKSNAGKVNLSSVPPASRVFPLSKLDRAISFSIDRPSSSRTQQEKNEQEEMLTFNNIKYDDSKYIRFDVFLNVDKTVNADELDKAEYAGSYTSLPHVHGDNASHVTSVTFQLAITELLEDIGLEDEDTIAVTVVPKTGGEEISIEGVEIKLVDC", "experiment": "In vitro enzyme assay, substrate specificity of NaPPO2", "format": "biochemical", "conditions": "incubated with NaPPO2 and (Z)-3-hexenal", "description": "Extracted ion chromatograms (EIC) for doubly charged CP dimer (m/z 250.13) and m/z 347.19 in E. coli expressing NaPPO1 and NaPPO2 with CP and Z3H or (E)-2-hexenal. Compounds 1, 2, 3, 4 denote isomers of CP dimer; compounds 5, 6 denote isomers of m/z 347.19.\nFIG. 53 Substrate specificity of NaPPO1 and NaPPO2 enzymes. Overlay of total ion chromatograms (TIC) of enzyme assays for authentic chlorogenic acid (CGA std), N-coumaroylputrescine (CoP std), (Z)-3-hexenal or (E)-2-hexenal with purified NaPPO1/NaPPO2 from E. coli. Compounds 1 and 2 denote CGA and CoP; 3 and 4 denote contamination peaks from (Z)-3-hexenal and CoP standards, respectively.\nTo test this hypothesis, purified NaPPO1, NaPPO2 and NaBBL2 proteins with N-terminal hexahistidine tags after expression in Escherichia coli were isolated (FIGS. 44-45). Incubation of either NaPPO1 or NaPPO2 (NaPPO1/2) with CP and (Z)-3-hexenal yielded a m/z 347.19 peak with identical MS/MS spectrum and retention time as the m/z 347.19 induced in N. attenuata leaves (FIG. 46). Additionally, by-products of doubly charged CP dimers at m/z 250.13 ([M+2H]2+, C26H36N4O62+) which are not detected in oral secretion-induced leaves of N. attenuata WT (Data 2) were also produced in vitro (FIG. 16 and FIG. 47). These doubly charged CP dimers were only produced when the quantities of the (Z)-3-hexenal substrate were lower than those of the CP substrate in vitro. […]\nIn vitro assays of NaPPO1, NaPPO2, and NaBBL2: NaPPO1, NaPPO2, and NaBBL2 enzyme activity assays were performed by incubating 100 μg of the purified recombinant protein in 84 mM acetate buffer (pH 4.8) containing 20 mM (E)-N-caffeoylputrescine (BOC Sciences, catalogue #: B0005-053482) and 1 M cis-3-hexenal (Sigma, catalogue #: W256102-SAMPLE-K) or trans-2-hexenal (Sigma, catalogue #: W256005-1KG-K). During incubation of the enzyme reactions at 8° C., 1 μL of the reactions buffer was directly injected and analyzed by LC-MS every h to detect products. […]"}}, "note": "Entries after “also recorded” stand apart in the source; their conditions may differ."}
{"substance": "N-coumaroylputrescine [CoP]", "values": [{"measurement": "preference of Empoasca for irMYC2 plants", "setting": "Empoasca leafhoppers", "result": "did not alter the preference; also recorded: not affecting leafhopper behavior or performance"}, {"measurement": "acceptance as substrate (new products)", "setting": "NaPPO2", "result": "not accepted as substrates"}]}
